The values below come from ChEMBL document CHEMBL5390280, “Design, Synthesis, and Biological Evaluation of an Orally Bioavailable, Potent, and Selective ROCK2 Inhibitor for Psoriasis Treatment” (J Med Chem, 2023).

Assay [1] is described as follows: Selectivity ratio of IC50 for ROCK1 (unknown origin) to IC50 for ROCK2 (unknown origin).
Assay [2] concerns the target T1, Rho-associated protein kinase 2 (Homo sapiens, UniProt O75116). Nature of the assay: Inhibition of ROCK2 (unknown origin) by HTRF assay. For orientation: TR-FRET usually uses a lanthanide donor and a delayed reading to cut background.
Assay [3] concerns the target T2, Rho-associated protein kinase 1 (Homo sapiens, UniProt Q13464). Nature of the assay: Inhibition of ROCK1 (unknown origin) by HTRF assay.
Assay [4] has as its target T1, Rho-associated protein kinase 2. As to the kind of experiment: Inhibition of ROCK2 (unknown origin).
Assay [5] has as its target T2, Rho-associated protein kinase 1. As to the kind of experiment: Inhibition of ROCK1 (unknown origin).

T2 sequence (Q13464 whole entry): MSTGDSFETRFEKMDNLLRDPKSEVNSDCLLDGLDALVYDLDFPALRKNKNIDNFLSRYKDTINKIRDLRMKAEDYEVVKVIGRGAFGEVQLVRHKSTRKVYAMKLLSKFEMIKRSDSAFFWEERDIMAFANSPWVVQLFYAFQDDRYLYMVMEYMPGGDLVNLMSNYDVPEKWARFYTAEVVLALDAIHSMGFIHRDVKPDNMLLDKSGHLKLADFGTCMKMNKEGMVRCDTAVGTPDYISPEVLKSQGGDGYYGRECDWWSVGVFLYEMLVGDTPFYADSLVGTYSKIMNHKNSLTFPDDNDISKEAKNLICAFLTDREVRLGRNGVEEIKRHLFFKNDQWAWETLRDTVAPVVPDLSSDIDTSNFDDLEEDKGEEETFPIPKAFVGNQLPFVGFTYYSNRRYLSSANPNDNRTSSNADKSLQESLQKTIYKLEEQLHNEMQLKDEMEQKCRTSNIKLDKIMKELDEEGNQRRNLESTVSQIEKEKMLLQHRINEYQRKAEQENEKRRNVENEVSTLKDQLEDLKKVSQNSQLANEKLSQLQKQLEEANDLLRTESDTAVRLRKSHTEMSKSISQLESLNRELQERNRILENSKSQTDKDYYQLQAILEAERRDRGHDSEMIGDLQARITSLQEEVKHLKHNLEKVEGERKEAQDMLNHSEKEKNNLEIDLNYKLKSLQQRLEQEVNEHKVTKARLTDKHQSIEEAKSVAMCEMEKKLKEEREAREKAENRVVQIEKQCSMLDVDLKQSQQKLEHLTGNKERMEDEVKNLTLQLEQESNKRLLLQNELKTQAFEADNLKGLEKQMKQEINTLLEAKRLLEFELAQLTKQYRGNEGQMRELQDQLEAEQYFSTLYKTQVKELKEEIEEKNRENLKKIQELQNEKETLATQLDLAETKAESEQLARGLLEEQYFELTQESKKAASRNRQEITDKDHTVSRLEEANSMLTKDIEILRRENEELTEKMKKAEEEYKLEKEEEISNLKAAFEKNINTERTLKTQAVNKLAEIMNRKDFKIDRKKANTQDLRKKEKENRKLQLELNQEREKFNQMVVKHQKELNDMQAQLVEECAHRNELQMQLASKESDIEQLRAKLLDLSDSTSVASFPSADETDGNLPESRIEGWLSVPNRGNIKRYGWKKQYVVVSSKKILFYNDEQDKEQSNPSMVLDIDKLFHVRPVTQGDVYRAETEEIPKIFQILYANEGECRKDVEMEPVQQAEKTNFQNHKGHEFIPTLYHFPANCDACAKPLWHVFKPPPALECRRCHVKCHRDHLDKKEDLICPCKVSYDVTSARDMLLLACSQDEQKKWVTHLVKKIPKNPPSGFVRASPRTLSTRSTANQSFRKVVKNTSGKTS
T1 sequence (O75116 whole entry): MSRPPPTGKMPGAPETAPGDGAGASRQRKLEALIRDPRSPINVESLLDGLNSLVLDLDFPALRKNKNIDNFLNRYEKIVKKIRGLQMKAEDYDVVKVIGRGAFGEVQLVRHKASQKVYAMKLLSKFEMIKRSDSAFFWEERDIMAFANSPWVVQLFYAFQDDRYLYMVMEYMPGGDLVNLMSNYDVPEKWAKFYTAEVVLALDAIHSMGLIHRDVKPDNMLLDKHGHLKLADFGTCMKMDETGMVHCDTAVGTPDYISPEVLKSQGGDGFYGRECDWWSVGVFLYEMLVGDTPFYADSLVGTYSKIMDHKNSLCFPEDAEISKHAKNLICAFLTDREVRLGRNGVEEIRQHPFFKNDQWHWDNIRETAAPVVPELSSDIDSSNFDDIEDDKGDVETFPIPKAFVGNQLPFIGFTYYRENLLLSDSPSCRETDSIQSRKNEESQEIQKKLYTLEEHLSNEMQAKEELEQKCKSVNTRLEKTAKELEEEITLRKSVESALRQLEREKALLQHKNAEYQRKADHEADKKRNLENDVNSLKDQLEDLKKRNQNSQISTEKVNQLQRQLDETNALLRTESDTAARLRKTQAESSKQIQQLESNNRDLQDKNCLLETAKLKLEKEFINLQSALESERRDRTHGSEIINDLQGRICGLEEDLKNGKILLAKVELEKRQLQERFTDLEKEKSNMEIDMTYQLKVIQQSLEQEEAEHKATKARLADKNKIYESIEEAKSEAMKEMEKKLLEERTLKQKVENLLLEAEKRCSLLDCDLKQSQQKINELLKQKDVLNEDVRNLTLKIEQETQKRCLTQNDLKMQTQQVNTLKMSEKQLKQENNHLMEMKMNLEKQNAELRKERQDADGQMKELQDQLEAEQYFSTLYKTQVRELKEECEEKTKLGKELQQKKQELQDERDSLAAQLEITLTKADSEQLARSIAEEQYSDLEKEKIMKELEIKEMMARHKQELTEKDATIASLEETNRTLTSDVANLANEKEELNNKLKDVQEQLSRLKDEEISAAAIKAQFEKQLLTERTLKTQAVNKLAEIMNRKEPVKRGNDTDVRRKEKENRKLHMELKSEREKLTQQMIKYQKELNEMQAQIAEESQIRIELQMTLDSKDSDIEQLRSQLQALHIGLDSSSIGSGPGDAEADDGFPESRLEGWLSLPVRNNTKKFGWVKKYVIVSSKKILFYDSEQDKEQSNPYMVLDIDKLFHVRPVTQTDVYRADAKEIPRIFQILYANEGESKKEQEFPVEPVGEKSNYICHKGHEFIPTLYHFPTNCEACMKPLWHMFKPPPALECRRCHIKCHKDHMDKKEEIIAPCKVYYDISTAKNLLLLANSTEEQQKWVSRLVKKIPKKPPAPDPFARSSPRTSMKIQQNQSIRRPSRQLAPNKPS

For `NC(=O)c1ccn(-c2cccc(CN[C@H]3CCC[C@@H](Nc4ccc5[nH]ncc5c4)C3)c2)c(=O)c1`, the Ratio IC50 in assay [1] was found to be 4. In addition, the IC50 – broadly, the concentration that gives 50% inhibition – was 130 nM in assay [2] and 464 nM in assay [3].

In the case of `Cc1cccn(-c2cccc(CN[C@H]3CCC[C@H](Nc4ccc5[nH]ncc5c4)C3)c2)c1=O`, in assay [1], the Ratio IC50 stood at 15. The IC50 in assay [2] stood at 18.7 nM; in assay [3], 277 nM.

With `Nc1nc(=O)n(-c2cccc(CN[C@H]3CCC[C@@H](Nc4ccc5[nH]ncc5c4)C3)c2)cc1F`, half-maximal inhibition in assay [2] (IC50) was put at 83.7 nM.

Turning to `Nc1ccn(-c2cccc(CN[C@H]3CCC[C@H](Nc4ccc5[nH]ncc5c4)C3)c2)c(=O)c1`, the IC50 in assay [2] turned out to be 54 nM.

Compound `Nc1ccn(-c2cccc(CN3CCCC(Nc4ccc5[nH]ncc5c4)C3)c2)c(=O)n1` (stereo not given) yielded an IC50 in assay [2] of 1 nM.

`Cc1cc(=O)n(-c2cccc(CN[C@H]3CCC[C@@H](Nc4ccc5[nH]ncc5c4)C3)c2)cc1N` came in with an IC50 in assay [2] of 434 nM.

As to `Cc1ccc(=O)n(-c2cccc(CN[C@H]3CCC[C@@H](Nc4ccc5[nH]ncc5c4)C3)c2)c1`, the Ratio IC50 in assay [1] was 1. The IC50 in assay [2] stood at 138 nM; in assay [3], 102 nM.

For `CCc1ccn(-c2cccc(CN[C@H]3CCC[C@@H](Nc4ccc5[nH]ncc5c4)C3)c2)c(=O)c1C`, in assay [1], the Ratio IC50 is 52. Moreover, the figures for the IC50 in assay [2] and in assay [3] were 6.1 nM and 313 nM, respectively.

With `N#Cc1ccn(-c2cccc(CN[C@H]3CCC[C@@H](Nc4ccc5[nH]ncc5c4)C3)c2)c(=O)c1`, the Ratio IC50 in assay [1] turned out to be 4. For the same compound, the IC50 in assay [2] turned out to be 77.1 nM; in assay [3], 272 nM.

As to `O=c1cc(F)ccn1-c1cccc(CN[C@H]2CCC[C@H](Nc3ccc4[nH]ncc4c3)C2)c1`, in assay [1], the Ratio IC50 amounted to 6. Moreover, the IC50 in assay [2] came out at 36.6 nM; in assay [3], 207 nM.

In the case of `Nc1ccn(-c2ccc(CNC3CCCC(Nc4ccc5[nH]ncc5c4)C3)cc2)c(=O)n1` (stereo not given), in assay [2], half-maximal inhibition (IC50) required 0.7 nM.

In the case of `Nc1ccn(-c2cccc(CN[C@H]3CCC[C@@H](Nc4ccc5[nH]ncc5c4)C3)c2)c(=O)c1`, the IC50 in assay [2] was 77.5 nM.

As for `Cc1ccc(=O)n(-c2cccc(CN[C@H]3CCC[C@H](Nc4ccc5[nH]ncc5c4)C3)c2)c1`, the Ratio IC50 in assay [1] came out at 4. Also, the IC50 in assay [2] was 35.4 nM; in assay [3] it was 152 nM.

For the compound `Cc1cccn(-c2cccc(CN[C@H]3CCC[C@@H](Nc4ccc5[nH]ncc5c4)C3)c2)c1=O`, the Ratio IC50 in assay [1] is 5. The IC50 in assay [2] turned out to be 153 nM; in assay [3], 811 nM.

As for `O=c1cc(C(F)(F)F)ccn1-c1cccc(CN[C@H]2CCC[C@@H](Nc3ccc4[nH]ncc4c3)C2)c1`, the Ratio IC50 in assay [1] was 5. The IC50 amounted to 207 nM in assay [2] and 967 nM in assay [3].

Turning to `Nc1ccn(-c2ccc(CN3CCCCC(Nc4ccc5[nH]ncc5c4)C3)cc2)c(=O)n1` (stereo not given), the IC50 in assay [2] was found to be 2 nM.

With `O=c1cc(F)ccn1-c1cccc(CN[C@H]2CCC[C@@H](Nc3ccc4[nH]ncc4c3)C2)c1`, the Ratio IC50 in assay [1] was found to be 3. Besides, the IC50 in assay [2] turned out to be 88.1 nM; in assay [3], 273 nM.

In assay [2], `Nc1ccn(-c2ccc(CN3CCCC(Nc4ccc5[nH]ncc5c4)C3)cc2)c(=O)n1` (stereo not given) had an IC50 of 5 nM.

As for `CC(C)(C)c1ccn(-c2cccc(CN[C@H]3CCC[C@H](Nc4ccc5[nH]ncc5c4)C3)c2)c(=O)c1`, the Ratio IC50 in assay [1] is 162. For the same compound, the IC50 in assay [2] was 1.3 nM; in assay [3], 210 nM.

As for `Cc1cc(=O)n(-c2cccc(CN[C@H]3CCC[C@H](Nc4ccc5[nH]ncc5c4)C3)c2)cc1N`, in assay [2], the IC50 came to 561 nM.

Take `CC(C)CCC(=O)Nc1ccn([C@H]2CC[C@H](O[C@H]3O[C@H](C)[C@@H](N(C)C)[C@H](O)[C@H]3O)[C@@H](C)O2)c(=O)n1`: the half-maximal inhibitory concentration (IC50) in assay [2] was 72.8 nM.

For `O=c1ccccn1-c1cccc(CN[C@H]2CCC[C@@H](Nc3ccc4[nH]ncc4c3)C2)c1`, the Ratio IC50 in assay [1] amounted to 9. The IC50 was 73.7 nM in assay [2] and 644 nM in assay [3].

As for `O=c1ccccn1-c1cccc(CN[C@H]2CCC[C@H](Nc3ccc4[nH]ncc4c3)C2)c1`, the Ratio IC50 in assay [1] turned out to be 4. The IC50 in assay [2] stood at 42.4 nM; in assay [3], 162 nM.

Turning to `O=c1cc(C(F)(F)F)ccn1-c1cccc(CN[C@H]2CCC[C@H](Nc3ccc4[nH]ncc4c3)C2)c1`, in assay [1], the Ratio IC50 was 2. The IC50 in assay [2] turned out to be 173 nM; in assay [3], 279 nM.

For the compound `Nc1ccn(-c2cccc(CNC3CCCC(Nc4ccc5[nH]ncc5c4)C3)c2)c(=O)n1` (stereo not given), half-maximal inhibition in assay [2] (IC50) was put at 0.2 nM.

Take `NC(=O)c1ccn(-c2cccc(CN[C@H]3CCC[C@H](Nc4ccc5[nH]ncc5c4)C3)c2)c(=O)c1`: in assay [1], the Ratio IC50 turned out to be 2. Besides, the results for the IC50 in assay [2] and in assay [3] were 102 nM and 238 nM, respectively.

`Cc1ccn(-c2cccc(CN[C@H]3CCC[C@@H](Nc4ccc5[nH]ncc5c4)C3)c2)c(=O)c1`: the Ratio IC50 in assay [1] came out at 68. Moreover, the IC50 in assay [2] worked out at 11.9 nM; in assay [3], 812 nM.

As for `CCc1ccn(-c2cccc(CN[C@H]3CCC[C@H](Nc4ccc5[nH]ncc5c4)C3)c2)c(=O)c1C`, the Ratio IC50 in assay [1] was determined as 16. Further, the values for the IC50 in assay [2] and in assay [3] were 13.1 nM and 209 nM, respectively.

Turning to `CC(C)(C)c1ccn(-c2cccc(CN[C@H]3CCC[C@@H](Nc4ccc5[nH]ncc5c4)C3)c2)c(=O)c1`, the Ratio IC50 in assay [1] was determined as 216. The IC50 in assay [2] was 1.6 nM; in assay [3], 335 nM.

Consider `COc1cc(-c2cn[nH]c2)cc2c(=O)[nH]c(C3COc4ccc(OCCN(C)C)cc4C3)nc12` (stereo not given), for which the IC50 was determined as 12 nM in assay [4] and 150 nM in assay [5].

Turning to `Cc1cc(=O)n(-c2cccc(CN[C@H]3CCC[C@@H](Nc4ccc5[nH]ncc5c4)C3)c2)cc1F`, the Ratio IC50 in assay [1] amounted to 8. Further, the IC50 in assay [2] turned out to be 27 nM; in assay [3] it was 216 nM.

`O=c1cc(-c2ccccc2)ccn1-c1cccc(CN[C@H]2CCC[C@@H](Nc3ccc4[nH]ncc4c3)C2)c1`: in assay [1], the Ratio IC50 was 59. Besides, the figures for the IC50 in assay [2] and in assay [3] were 1.7 nM and 99.4 nM, respectively.

With `O=c1cc(-c2ccccc2)ccn1-c1cccc(CN[C@H]2CCC[C@H](Nc3ccc4[nH]ncc4c3)C2)c1`, the Ratio IC50 in assay [1] came to 32. Also, the IC50 was determined as 3 nM in assay [2] and 96.1 nM in assay [3].

Take `Cc1ccn(-c2cccc(CN[C@H]3CCC[C@H](Nc4ccc5[nH]ncc5c4)C3)c2)c(=O)c1`: the Ratio IC50 in assay [1] was 7. For the same compound, the IC50 was determined as 26 nM in assay [2] and 171 nM in assay [3].

As to `Nc1nc(=O)n(-c2cccc(CN[C@H]3CCC[C@H](Nc4ccc5[nH]ncc5c4)C3)c2)cc1F`, the IC50 in assay [2] was determined as 66.2 nM.
